Assay results as given in patent US20230117034A1, “PYRAZOLOTRIAZINES” (Bayer Aktiengesellschaft, priority 2019, published 2023).

Columns and labels:
[1] = target: T1, CYCLIN K (nuclear staining in CAL-120 cells) (Homo sapiens, UniProt O75909); assay: CYCLIN K nuclear protein level: immunofluorescence high content analysis (CAL-120); type: cell-based; conditions: 24 h, 50% reduction of nuclear CCNK staining intensity, median, read-out: CYCLIN K degradation IF, DC50-[mol/l] (median)
T1 construct: endogenous in cells; host or cells: CAL-120 human breast cancer cells (DSMZ ACC 459)
T1 sequence (O75909 whole entry): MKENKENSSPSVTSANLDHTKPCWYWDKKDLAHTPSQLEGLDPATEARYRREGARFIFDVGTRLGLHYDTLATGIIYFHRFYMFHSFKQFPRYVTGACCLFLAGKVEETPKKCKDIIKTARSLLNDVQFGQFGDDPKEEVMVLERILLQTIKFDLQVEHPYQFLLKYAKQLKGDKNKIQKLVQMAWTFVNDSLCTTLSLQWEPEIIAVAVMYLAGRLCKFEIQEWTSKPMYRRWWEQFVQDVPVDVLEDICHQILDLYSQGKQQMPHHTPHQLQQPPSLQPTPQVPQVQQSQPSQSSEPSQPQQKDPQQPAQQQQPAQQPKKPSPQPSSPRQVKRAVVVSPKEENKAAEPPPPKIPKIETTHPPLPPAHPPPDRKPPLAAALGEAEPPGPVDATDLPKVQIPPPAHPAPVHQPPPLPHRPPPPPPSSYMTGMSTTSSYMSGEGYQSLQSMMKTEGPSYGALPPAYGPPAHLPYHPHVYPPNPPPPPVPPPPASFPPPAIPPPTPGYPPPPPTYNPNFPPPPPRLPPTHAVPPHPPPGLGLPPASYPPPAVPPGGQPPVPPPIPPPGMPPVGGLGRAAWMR
T1 sequence (Q9NYV4 whole entry partner): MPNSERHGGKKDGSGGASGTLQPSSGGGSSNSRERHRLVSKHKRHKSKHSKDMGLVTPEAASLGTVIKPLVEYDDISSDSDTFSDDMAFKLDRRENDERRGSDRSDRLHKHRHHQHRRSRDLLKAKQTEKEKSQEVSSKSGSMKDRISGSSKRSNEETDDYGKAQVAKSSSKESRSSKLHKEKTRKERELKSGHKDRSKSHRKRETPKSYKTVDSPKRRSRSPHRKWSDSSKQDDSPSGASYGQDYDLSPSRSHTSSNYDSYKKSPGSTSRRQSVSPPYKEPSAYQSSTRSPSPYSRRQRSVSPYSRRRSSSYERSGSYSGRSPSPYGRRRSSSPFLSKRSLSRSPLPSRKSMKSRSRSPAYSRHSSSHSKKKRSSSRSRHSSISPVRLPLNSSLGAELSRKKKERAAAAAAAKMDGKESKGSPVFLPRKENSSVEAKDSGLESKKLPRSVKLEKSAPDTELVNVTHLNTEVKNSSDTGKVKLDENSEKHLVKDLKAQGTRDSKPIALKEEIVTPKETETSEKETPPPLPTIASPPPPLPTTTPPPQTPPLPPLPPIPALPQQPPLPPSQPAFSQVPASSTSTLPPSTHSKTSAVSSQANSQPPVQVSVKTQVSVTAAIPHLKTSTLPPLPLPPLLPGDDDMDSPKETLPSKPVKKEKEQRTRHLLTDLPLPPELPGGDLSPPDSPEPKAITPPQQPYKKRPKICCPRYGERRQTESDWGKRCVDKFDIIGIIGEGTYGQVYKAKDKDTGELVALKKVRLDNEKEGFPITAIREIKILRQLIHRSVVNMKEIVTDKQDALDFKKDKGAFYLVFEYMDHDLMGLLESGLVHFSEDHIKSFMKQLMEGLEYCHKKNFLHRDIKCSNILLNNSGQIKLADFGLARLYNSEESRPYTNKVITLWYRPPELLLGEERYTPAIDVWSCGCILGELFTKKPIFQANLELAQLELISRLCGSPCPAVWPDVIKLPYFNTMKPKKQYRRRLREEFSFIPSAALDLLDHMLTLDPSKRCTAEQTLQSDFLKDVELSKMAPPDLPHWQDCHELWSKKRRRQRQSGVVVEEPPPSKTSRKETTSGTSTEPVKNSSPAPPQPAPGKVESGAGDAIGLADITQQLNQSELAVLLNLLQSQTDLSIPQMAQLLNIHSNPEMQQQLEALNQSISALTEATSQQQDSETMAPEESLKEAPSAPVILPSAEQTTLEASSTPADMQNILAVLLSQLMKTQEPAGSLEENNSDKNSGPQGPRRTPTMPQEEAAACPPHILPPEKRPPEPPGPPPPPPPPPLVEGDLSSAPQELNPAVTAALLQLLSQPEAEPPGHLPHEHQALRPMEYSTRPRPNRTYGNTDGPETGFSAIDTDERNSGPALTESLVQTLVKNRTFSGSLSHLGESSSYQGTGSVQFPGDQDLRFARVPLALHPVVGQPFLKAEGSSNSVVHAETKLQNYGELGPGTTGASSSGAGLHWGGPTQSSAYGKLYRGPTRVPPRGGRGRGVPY
How it was run: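 Readout is automated confocal image analysis of nuclear cyclin K immunofluorescence (Hoechst nuclei) after PFA fixation. Cells were CAL-120, exposed to compound dose-response 24 h at 37 °C; values are DC50 for halving nuclear CCNK signal relative to DMSO and control wells.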

[2] = target: T2, CDK12 (nuclear staining in CAL-120 cells) (Homo sapiens, UniProt Q9NYV4); assay: CDK12 nuclear protein level: immunofluorescence/high content analysis (CAL-120); type: cell-based; conditions: for DC50: CAL-120 cells, 24 h, immunofluorescence, 50% reduction of nuclear CDK12 staining intensity, median, read-out: CDK12 degradation IF, DC50- [mol/l] (median); for (IC50 CDK12 high ATP) to (Degradation DC50 CDK12) ratio: ratio of IC50 CDK12 high ATP kinase assay to DC50 CDK12 degradation (IF, CAL-120)
T2 construct: endogenous in cells; host or cells: CAL-120 human breast cancer cells (DSMZ ACC 459)
T2 sequence (Q9NYV4 whole entry): as the sequence (Q9NYV4 whole entry partner) above
T2 sequence (O75909 whole entry partner): as the sequence (O75909 whole entry) above
How it was run: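 DC50 is the degrader concentration that halves nuclear CDK12 immunofluorescence relative to controls, measured by high-content imaging. CAL-120 cells were exposed to compound for 24 h at 37 °C before PFA fixation, and signal was normalized to DMSO and control wells.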

CDK2/CycE = target: T3, CDK2/CycE (Homo sapiens, UniProt P24941); assay: CDK2/CycE kinase assay (TR-FRET, 2 mM ATP); type: biochemical; conditions: 2 mM ATP (high ATP); median; read-out: CDK2/CyclinE, 2 mM ATP (high ATP), IC50 (median)
T3 construct: purchased ProQinase GmbH (Freiburg, Germany); host or cells: insect cells (Sf9)
How it was run: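 Biotin-peptide phosphorylation (0.75 µM substrate, 2 mM ATP final, 25 min, 22 °C) by Sf9-expressed GST-CDK2/GST-CycE, after a 15-min compound pre-binding step. Inhibition scaled between enzyme-free (100%) and uninhibited (0%) wells.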

SMILES | DC50 [1] [nM] | DC50 [2] [nM] | (IC50 CDK12 high ATP) to (Degradation DC50 CDK12) ratio [2] | IC50 (CDK2/CycE) [nM]
CC(C)c1cnn2c(NCc3nc4ccccc4[nH]3)nc(N3CCN(C)CC3)nc12 [Example 2, N-[(1H-benzimidazol-2-yl)methyl]-2-(4-methylpiperazin-1-yl)-8-(propan-2-yl)pyrazolo[1,5-a][1,3,5]triazin-4-amine] | 5.04 | 8.46 | >2365 | 11100
Brc1cnn2c(NCc3nnc(-c4ccccc4)[nH]3)nc(N3CC4(COC4)C3)nc12 [Example 65, 8-bromo-2-(2-oxa-6-azaspiro[3.3]heptan-6-yl)-N-[(5-phenyl-4H-1,2,4-triazol-3-yl)methyl]pyrazolo[1,5-a][1,3,5]triazin-4-amine] | 16.4 | 4.15 | 245 | > 20000
Brc1cnn2c(NCc3ncc(-c4ccccn4)[nH]3)nc(N3CCOCC3)nc12 [Example 90, 8-bromo-2-(morpholin-4-yl)-N-{[5-(pyridin-2-yl)-1H-imidazol-2-yl]methyl}pyrazolo[1,5-a][1,3,5]triazin-4-amine] | 0.357 | 4.05 | 1092 | 1790
OCC1COCCN1c1nc(NCc2nc3ccccc3[nH]2)n2ncc(Br)c2n1 (stereo not drawn) [Example 67, (4-{4-[(1H-benzimidazol-2-ylmethyl)amino]-8-bromopyrazolo[1,5-a][1,3,5]triazin-2-yl}morpholin-3-yl)methanol] | 0.814 | 3.77 | 727 | 1860
C[C@@H]1CN(c2nc(NCc3nc4ccccc4[nH]3)n3ncc(Br)c3n2)C[C@H](C)O1 [Example 73, N-[(1H-benzimidazol-2-yl)methyl]-8-bromo-2-[(2R,6S)-2,6-dimethylmorpholin-4-yl]pyrazolo[1,5-a][1,3,5]triazin-4-amine] | 0.735 | 5.15 | 129 | 6090
C[C@@H]1CN(c2nc(NCc3nnc(-c4ccccc4)[nH]3)n3ncc(Br)c3n2)C[C@H](C)O1 [Example 78, 8-bromo-2-[(2R,6S)-2,6-dimethylmorpholin-4-yl]-N-[(5-phenyl-4H-1,2,4-triazol-3-yl)methyl]pyrazolo[1,5-a][1,3,5]triazin-4-amine] | 1.61 | 5.15 | 141 | 4280
COC1CCN(c2nc(NCc3nnc(-c4ccccc4)[nH]3)n3ncc(Br)c3n2)CC1 [Example 76, 8-bromo-2-(4-methoxypiperidin-1-yl)-N-[(5-phenyl-4H-1,2,4-triazol-3-yl)methyl]pyrazolo[1,5-a][1,3,5]triazin-4-amine] | 8.06 | 12.1 | >440 | 8340
FC(F)(F)Oc1cccc(-c2cnc(CNc3nc(N4CCOCC4)nc4c(Br)cnn34)[nH]2)c1 [Example 82, 8-bromo-2-(morpholin-4-yl)-N-({5-[3-(trifluoromethoxy)phenyl]-1H-imidazol-2-yl}methyl)pyrazolo[1,5-a][1,3,5]triazin-4-amine] | 14.2 | 22.3 | 41 | 11600
OC[C@H]1CCCCN1c1nc(NCc2nnc(-c3ccccc3)[nH]2)n2ncc(Br)c2n1 [Example 71, [(2R)-1-(8-bromo-4-{[(5-phenyl-4H-1,2,4-triazol-3-yl)methyl]amino}pyrazolo[1,5-a][1,3,5]triazin-2-yl)piperidin-2-yl]methanol] | 2.77 | 4.34 | 998 | 2230
Fc1cccc(-c2cnc(CNc3nc(N4CCOCC4)nc4c(Br)cnn34)[nH]2)c1 [Example 79, 8-bromo-N-{[5-(3-fluorophenyl)-1H-imidazol-2-yl]methyl}-2-(morpholin-4-yl)pyrazolo[1,5-a][1,3,5]triazin-4-amine] | 0.469 | 1.23 | 460 | 2300
Brc1cnn2c(NCc3nnc(-c4ccccc4)[nH]3)nc(N3CCCC3)nc12 [Example 64, 8-bromo-N-[(5-phenyl-4H-1,2,4-triazol-3-yl)methyl]-2-(pyrrolidin-1-yl)pyrazolo[1,5-a][1,3,5]triazin-4-amine] | 4.89 | 12.5 | 440 | 4660
CC(C)c1cnn2c(NCc3nc4ccccc4[nH]3)nc(N3CCOCC3)nc12 [Example 1, N-[(1H-benzimidazol-2-yl)methyl]-2-(morpholin-4-yl)-8-(propan-2-yl)pyrazolo[1,5-a][1,3,5]triazin-4-amine] | 11.1 | 11.1 | 537 | 5270
Fc1ccccc1-c1cnc(CNc2nc(N3CCOCC3)nc3c(Br)cnn23)[nH]1 [Example 86, 8-bromo-N-{[5-(2-fluorophenyl)-1H-imidazol-2-yl]methyl}-2-(morpholin-4-yl)pyrazolo[1,5-a][1,3,5]triazin-4-amine] | 0.576 | 3.95 | 478 | 1950
COc1ccccc1-c1cnc(CNc2nc(N3CCOCC3)nc3c(Br)cnn23)[nH]1 [Example 87, 8-bromo-N-{[5-(2-methoxyphenyl)-1H-imidazol-2-yl]methyl}-2-(morpholin-4-yl)pyrazolo[1,5-a][1,3,5]triazin-4-amine] | 0.667 | 2.16 | 1196 | 2550
Clc1ccc(-c2cnc(CNc3nc(N4CCOCC4)nc4c(Br)cnn34)[nH]2)cc1 [Example 72, 8-bromo-N-{[5-(4-chlorophenyl)-1H-imidazol-2-yl]methyl}-2-(morpholin-4-yl)pyrazolo[1,5-a][1,3,5]triazin-4-amine] | 11.4 | 10 | 55 | 4350
FC(F)(F)c1ccccc1-c1cnc(CNc2nc(N3CCOCC3)nc3c(Br)cnn23)[nH]1 [Example 88, 8-bromo-2-(morpholin-4-yl)-N-({5-[2-(trifluoromethyl)phenyl]-1H-imidazol-2-yl}methyl)pyrazolo[1,5-a][1,3,5]triazin-4-amine] | 1.16 | 16.3 | 84 | 8550
FC(F)(F)c1cccc(-c2cnc(CNc3nc(N4CCOCC4)nc4c(Br)cnn34)[nH]2)c1 [Example 83, 8-bromo-2-(morpholin-4-yl)-N-({5-[3-(trifluoromethyl)phenyl]-1H-imidazol-2-yl}methyl)pyrazolo[1,5-a][1,3,5]triazin-4-amine] | 1.78 | 9.37 | 111 | 7660
Brc1cnn2c(NCc3ncc(-c4cccnc4)[nH]3)nc(N3CCOCC3)nc12 [Example 84, 8-bromo-2-(morpholin-4-yl)-N-{[5-(pyridin-3-yl)-1H-imidazol-2-yl]methyl}pyrazolo[1,5-a][1,3,5]triazin-4-amine] | 11.8 | 21.2 | 98 | 4840
